“And” between values parts separate entries of the source, which are not always exact repeats. Identical values can stand only once.
What was measured:
[1] = tested on: alloxan-induced diabetic rats; assay: Blood glucose level in alloxan-induced diabetes model; type: in vivo, Wistar female rats; settings: mean ± SD; for Blood glucose (BG) level, mean: alloxan-induced diabetic rats, oral gavage daily for 5 weeks, metformin 300 mg/kg/day, S 150 mg/kg/day, sage extract 150 mg/kg/day; for Average blood glucose reduction (pre- vs post-treatment): end of week 3 vs end of week 8, oral daily 5 weeks, metformin 300, S 150, sage 150 mg/kg/day
Method: The in vivo experiment was conducted using Wistar female rats, obtained through the “Grigore T. Popa” University of Medicine and Pharmacy (UMF) Iași, from the Cantacuzino Institute in Bucharest, Romania. Throughout the experimental period, the animals were housed at the CEMEX biobase, within the UMF “Grigore T. Popa” Iași. […] Female rats were selected in alignment with the broader research objective focused on diabetes-induced alterations of the female reproductive system.
Following a 7-day acclimatization period, diabetes was induced in groups 2–6 by a single intraperitoneal injection of alloxan at a dose of 150 mg/kg body weight.
Blood glucose (BG) was assessed 5 days post-administration using peripheral tail vein blood. A threshold of 200 mg/dL was used to confirm severe hyperglycemia. […] The end of week 3 thus marked the point of confirmed diabetes and the onset of pharmacological interventions. […] The full experimental timeline extended over 8 weeks.
To minimize potential confounders, all experimental procedures—including compound administration and blood glucose level measurements— were performed at the same time of day for all animals. Blood glucose (BG) levels were monitored weekly using a portable glucometer (tail vein blood).
To quantify the hypoglycemic effect of the applied treatments, the percentage decrease in blood glucose was calculated based on pre- and post-treatment values using the following formula: Absolute decrease in blood glucose %=blood glucose (pre−treatment)−blood glucose (post−treatment)/blood glucose (pre−treatment)×100

[2] = Plasma steady-state concentration by HPLC and volume of distribution; settings: female, Wistar, rat, oral, 300 mg/kg/day, rats, oral daily dosing 5 weeks, HPLC, metformin 300 mg/kg/day, S 150 mg/kg/day
Method: At the end of the experimental period, blood samples were collected from the retro-orbital plexus under ketamine anesthesia (75 mg/kg body weight). Samples were collected into EDTA-coated tubes and stored at −20 °C until biochemical analyses were performed. Finally, the animals were humanely euthanized using Thiopental 0.01%.
Extraction of the target compounds from whole blood samples was performed using a liquid–liquid extraction method, with dichloromethane as the organic solvent (sample: solvent ratio 1:2). The extraction was carried out under acidic conditions (pH 3, using 4% acetic acid). Following centrifugation, the organic phase was evaporated under a stream of high-purity nitrogen gas at 40 °C (Thermo Scientific, Bremen, Germany). The resulting dry residue was reconstituted in 500 µL of 10% methanol in water.
Separation was achieved on a 150-4.6 LiChrospher®RP-18, 5 µm, column (Merck, Darmstadt, Germany). […] The flow rate was set to 1.0 mL/min, and the total run time for each analysis was 30 min.
The volume of distribution at steady state (Vd) was calculated using the following formula: Vd=D/Css(L) where D represents the administered dose, calculated individually based on each animal’s body weight (mg/kg), and Css is the steady-state plasma concentration (mg/L).

[3] = design: method as in earlier work; settings: rats, ref 42 (Choi et al. 2006); cited from earlier work

| Compound | Blood glucose (BG) level, mean [1] | Average blood glucose reduction (pre- vs post-treatment) [1] | concentration at 5 weeks ([2]; Average plasma concentration (steady state), mean ± SD) | concentration at 5 weeks ([2]; Plasma concentration, range) | Fraction of oral dose subject to gastrointestinal and hepatic first-pass effects [3] |
| --- | --- | --- | --- | --- | --- |
| CN(C)C(=N)N=C(N)N [metformin] | 224.8 ± 192.78 mg/dL | 36.4% and 36.46 ± 32.5% and 36.46% | 5320 ± 1580 ng/mL | 3170 to 7540 ng/mL | approximately 65% |
| N-(diaminomethylene)-4-methylbenzenesulfonamide | 236.0 ± 94.70 mg/dL | 40.6% and 40.95 ± 15.94% | – | – | – |

From publication PMC12297955, “Comparative Study: Biguanide-, Sulfonamide-, and Natural Agent-Based Interventions in an In Vivo Experimental Diabetes Model” (Medicina, 2025)
